In ChEMBL document CHEMBL3414527, “Engineering potent and selective analogues of GpTx-1, a tarantula venom peptide antagonist of the Na(V)1.7 sodium channel” (J Med Chem, 2015) one finds IC50 data, which are given here for 9 molecules.

This assay concerns the target Sodium channel protein type 5 subunit alpha (Homo sapiens, UniProt Q14524). The experiment in a line: Inhibition of human NaV1.5 at -140 mV holding potential by whole-cell patch clamp assay. (The patch-clamp technique gives a direct electrical read-out from membranes.)

pIC50: −log10 of the molar value. Bridge positions count the residues as written; N and C are the ends. Peptide text beside a SMILES is read from it. A value given as a limit tells only on which side of the number the result lay.

Sequence of Sodium channel protein type 5 subunit alpha (Q14524 whole entry): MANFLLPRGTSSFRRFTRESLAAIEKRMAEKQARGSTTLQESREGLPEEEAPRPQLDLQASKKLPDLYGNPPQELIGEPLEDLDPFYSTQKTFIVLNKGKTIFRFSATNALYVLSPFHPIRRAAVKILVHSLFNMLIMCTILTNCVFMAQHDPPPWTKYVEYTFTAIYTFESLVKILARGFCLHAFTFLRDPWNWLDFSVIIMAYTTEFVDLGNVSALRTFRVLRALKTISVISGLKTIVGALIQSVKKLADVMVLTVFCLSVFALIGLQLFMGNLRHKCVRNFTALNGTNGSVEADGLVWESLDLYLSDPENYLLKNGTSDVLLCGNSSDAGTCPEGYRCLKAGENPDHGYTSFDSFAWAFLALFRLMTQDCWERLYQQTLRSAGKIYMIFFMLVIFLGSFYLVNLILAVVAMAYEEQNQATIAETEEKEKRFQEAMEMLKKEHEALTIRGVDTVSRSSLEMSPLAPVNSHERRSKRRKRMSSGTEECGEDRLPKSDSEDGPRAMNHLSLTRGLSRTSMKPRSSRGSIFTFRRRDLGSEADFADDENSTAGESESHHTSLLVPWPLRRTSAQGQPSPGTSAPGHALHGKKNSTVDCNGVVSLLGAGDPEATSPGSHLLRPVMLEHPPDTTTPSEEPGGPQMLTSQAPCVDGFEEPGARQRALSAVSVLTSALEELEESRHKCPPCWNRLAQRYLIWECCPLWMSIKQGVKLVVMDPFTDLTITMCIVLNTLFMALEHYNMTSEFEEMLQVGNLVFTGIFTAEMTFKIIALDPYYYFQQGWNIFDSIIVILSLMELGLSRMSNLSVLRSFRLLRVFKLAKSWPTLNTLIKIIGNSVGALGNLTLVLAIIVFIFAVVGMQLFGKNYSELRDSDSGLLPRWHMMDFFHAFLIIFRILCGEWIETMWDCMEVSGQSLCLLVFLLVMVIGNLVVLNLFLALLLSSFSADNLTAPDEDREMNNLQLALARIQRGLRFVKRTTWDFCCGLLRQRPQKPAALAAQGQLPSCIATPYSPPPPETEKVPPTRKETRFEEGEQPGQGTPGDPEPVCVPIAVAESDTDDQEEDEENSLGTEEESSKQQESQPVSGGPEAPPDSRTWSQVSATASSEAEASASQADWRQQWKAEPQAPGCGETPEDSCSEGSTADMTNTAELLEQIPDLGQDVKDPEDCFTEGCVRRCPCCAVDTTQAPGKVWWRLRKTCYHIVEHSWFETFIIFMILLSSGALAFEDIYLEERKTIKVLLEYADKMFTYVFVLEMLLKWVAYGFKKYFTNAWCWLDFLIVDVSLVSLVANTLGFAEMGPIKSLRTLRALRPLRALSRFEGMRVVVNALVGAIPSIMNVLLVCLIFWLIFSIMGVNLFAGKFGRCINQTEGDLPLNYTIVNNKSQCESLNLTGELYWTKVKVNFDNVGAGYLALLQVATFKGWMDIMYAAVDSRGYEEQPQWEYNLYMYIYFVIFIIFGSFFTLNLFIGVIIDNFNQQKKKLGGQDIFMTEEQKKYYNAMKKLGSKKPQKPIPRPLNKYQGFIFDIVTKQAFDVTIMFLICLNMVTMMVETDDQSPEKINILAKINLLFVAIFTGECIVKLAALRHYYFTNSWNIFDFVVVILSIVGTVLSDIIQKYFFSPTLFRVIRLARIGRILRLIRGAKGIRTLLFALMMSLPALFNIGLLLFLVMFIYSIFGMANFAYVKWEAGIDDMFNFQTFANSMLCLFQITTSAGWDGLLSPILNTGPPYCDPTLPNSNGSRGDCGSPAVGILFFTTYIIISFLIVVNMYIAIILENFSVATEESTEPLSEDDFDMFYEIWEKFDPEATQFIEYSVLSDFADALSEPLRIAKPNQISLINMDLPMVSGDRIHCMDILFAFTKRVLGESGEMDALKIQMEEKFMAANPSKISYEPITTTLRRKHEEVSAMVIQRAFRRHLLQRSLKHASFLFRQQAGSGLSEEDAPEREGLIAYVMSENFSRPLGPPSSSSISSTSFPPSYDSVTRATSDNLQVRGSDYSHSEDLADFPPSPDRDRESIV

The term pIC50 denotes the IC50 on a negative log10 scale, so that one unit is a factor of ten. As for `CC[C@H](C)[C@@H]1NC(=O)[C@@H]2CSSC[C@@H]3NC(=O)[C@H](C(C)C)NC(=O)[C@H](CC(C)C)NC(=O)[C@H](CC(N)=O)NC(=O)[C@@H]4CCCN4C(=O)[C@H](CCCNC(=N)N)NC(=O)[C@H](CSSC[C@H](NC(=O)[C@H](CC(=O)O)NC(=O)[C@H](C)N)C(=O)N[C@@H](CC(C)C)C(=O)NCC(=O)N[C@@H](Cc4ccccc4)C(=O)N[C@@H](CCSC)C(=O)N[C@@H](CCCNC(=N)N)C(=O)N[C@@H](CCCCN)C(=O)N2)NC(=O)[C@H](CSSC[C@@H](C(=O)N[C@@H](CCCCN)C(=O)N[C@@H](Cc2ccc(O)cc2)C(=O)N[C@H](C(=O)N[C@@H](Cc2ccccc2)C(N)=O)C(C)C)NC(=O)[C@H](Cc2c[nH]c4ccccc24)NC(=O)[C@H](CCCCN)NC(=O)[C@H](Cc2cnc[nH]2)NC(=O)[C@H]([C@@H](C)O)NC(=O)[C@H](CCCNC(=N)N)NC(=O)[C@H](CO)NC3=O)NC(=O)[C@H](CCCCN)NC(=O)[C@H](CC(=O)O)NC(=O)[C@H](CC(N)=O)NC(=O)[C@H](CC(=O)O)NC(=O)[C@@H]2CCCN2C1=O`, the pIC50 was < 5.30.
To `CC[C@H](C)[C@@H]1NC(=O)[C@@H]2CSSC[C@@H]3NC(=O)[C@H](C(C)C)NC(=O)[C@H](CC(C)C)NC(=O)[C@H](CC(N)=O)NC(=O)[C@@H]4CCCN4C(=O)[C@H](CCCNC(=N)N)NC(=O)[C@H](CSSC[C@H](NC(=O)[C@@H](N)CC(=O)O)C(=O)N[C@@H](CC(C)C)C(=O)NCC(=O)N[C@@H](Cc4ccccc4)C(=O)N[C@@H](CCSC)C(=O)N[C@@H](CCCNC(=N)N)C(=O)N[C@@H](CCCCN)C(=O)N2)NC(=O)[C@H](CSSC[C@@H](C(=O)N[C@@H](CCCCN)C(=O)N[C@@H](Cc2ccc(O)cc2)C(=O)N[C@H](C(=O)N[C@@H](Cc2ccccc2)C(=O)N[C@@H](C)C(N)=O)C(C)C)NC(=O)[C@H](Cc2c[nH]c4ccccc24)NC(=O)[C@H](CCCCN)NC(=O)[C@H](Cc2cnc[nH]2)NC(=O)[C@H]([C@@H](C)O)NC(=O)[C@H](CCCNC(=N)N)NC(=O)[C@H](CO)NC3=O)NC(=O)[C@H](CCCCN)NC(=O)[C@H](CC(=O)O)NC(=O)[C@H](CC(N)=O)NC(=O)[C@H](CC(=O)O)NC(=O)[C@@H]2CCCN2C1=O` belongs < 5.30; to `CC[C@H](C)[C@@H]1NC(=O)[C@@H]2CSSC[C@@H]3NC(=O)[C@H](C(C)C)NC(=O)[C@H](CC(C)C)NC(=O)[C@H](CC(N)=O)NC(=O)[C@@H]4CCCN4C(=O)[C@H](CCCNC(=N)N)NC(=O)[C@H](CSSC[C@H](NC(=O)[C@@H](N)CC(=O)O)C(=O)N[C@@H](CC(C)C)C(=O)NCC(=O)N[C@@H](C4CCCC4)C(=O)N[C@@H](CCSC)C(=O)N[C@@H](CCCNC(=N)N)C(=O)N[C@@H](CCCCN)C(=O)N2)NC(=O)[C@H](CSSC[C@@H](C(=O)N[C@@H](CCCCN)C(=O)N[C@@H](Cc2ccc(O)cc2)C(=O)N[C@H](C(=O)N[C@@H](Cc2ccccc2)C(N)=O)C(C)C)NC(=O)[C@H](Cc2c[nH]c4ccccc24)NC(=O)[C@H](CCCCN)NC(=O)[C@H](Cc2cnc[nH]2)NC(=O)[C@H]([C@@H](C)O)NC(=O)[C@H](CCCNC(=N)N)NC(=O)[C@H](CO)NC3=O)NC(=O)[C@H](CCCCN)NC(=O)[C@H](CC(=O)O)NC(=O)[C@H](CC(N)=O)NC(=O)[C@H](CC(=O)O)NC(=O)[C@@H]2CCCN2C1=O`, < 5.00; to `CCCC[C@@H]1NC(=O)[C@H](Cc2ccccc2)NC(=O)CNC(=O)[C@H](CC(C)C)NC(=O)[C@@H](NC(=O)[C@@H](N)CC(=O)O)CSSC[C@@H]2NC(=O)[C@@H]3CSSC[C@@H](C(=O)N[C@@H](CCCCN)C(=O)N[C@@H](Cc4ccc(O)cc4)C(=O)N[C@H](C(=O)N[C@@H](Cc4ccccc4)C(N)=O)C(C)C)NC(=O)[C@H](Cc4c[nH]c5ccccc45)NC(=O)[C@H](CCCCN)NC(=O)[C@H](Cc4cnc[nH]4)NC(=O)[C@H]([C@@H](C)O)NC(=O)[C@H](CCCNC(=N)N)NC(=O)[C@H](CO)NC(=O)[C@H](CSSC[C@H](NC(=O)[C@H](CCCCN)NC(=O)[C@H](CCCNC(=N)N)NC1=O)C(=O)N[C@@H]([C@@H](C)CC)C(=O)N1CCC[C@H]1C(=O)N[C@@H](CC(=O)O)C(=O)N[C@@H](CC(N)=O)C(=O)N[C@@H](CC(=O)O)C(=O)N[C@@H](CCCCN)C(=O)N3)NC(=O)[C@H](C(C)C)NC(=O)[C@H](CC(C)C)NC(=O)[C@H](CC(N)=O)NC(=O)[C@@H]1CCCN1C(=O)[C@H](CCCNC(=N)N)NC2=O`, 5.96.
Take `CCCC[C@@H]1NC(=O)[C@H](C)NC(=O)CNC(=O)[C@H](CC(C)C)NC(=O)[C@@H](NC(=O)[C@@H](N)CC(=O)O)CSSC[C@@H]2NC(=O)[C@@H]3CSSC[C@@H](C(=O)N[C@@H](CCCCN)C(=O)N[C@@H](Cc4ccc(O)cc4)C(=O)N[C@H](C(=O)N[C@@H](Cc4ccccc4)C(N)=O)C(C)C)NC(=O)[C@H](Cc4c[nH]c5ccccc45)NC(=O)[C@H](CCCCN)NC(=O)[C@H](Cc4cnc[nH]4)NC(=O)[C@H]([C@@H](C)O)NC(=O)[C@H](CCCNC(=N)N)NC(=O)[C@H](CO)NC(=O)[C@H](CSSC[C@H](NC(=O)[C@H](CCCCN)NC(=O)[C@H](CCCNC(=N)N)NC1=O)C(=O)N[C@@H]([C@@H](C)CC)C(=O)N1CCC[C@H]1C(=O)N[C@@H](CC(=O)O)C(=O)N[C@@H](CC(N)=O)C(=O)N[C@@H](CC(=O)O)C(=O)N[C@@H](CCCCN)C(=O)N3)NC(=O)[C@H](C(C)C)NC(=O)[C@H](CC(C)C)NC(=O)[C@H](CC(N)=O)NC(=O)[C@@H]1CCCN1C(=O)[C@H](CCCNC(=N)N)NC2=O`: the pIC50 is < 5.00.
As for `CC[C@H](C)[C@@H]1NC(=O)[C@@H]2CSSC[C@@H]3NC(=O)[C@H](C(C)C)NC(=O)[C@H](CC(C)C)NC(=O)[C@H](CC(N)=O)NC(=O)[C@@H]4CCCN4C(=O)[C@H](CCCNC(=N)N)NC(=O)[C@H](CSSC[C@H](NC(=O)[C@H](C)N)C(=O)N[C@@H](CC(C)C)C(=O)NCC(=O)N[C@@H](Cc4ccccc4)C(=O)N[C@@H](CCSC)C(=O)N[C@@H](CCCNC(=N)N)C(=O)N[C@@H](CCCCN)C(=O)N2)NC(=O)[C@H](CSSC[C@@H](C(=O)N[C@@H](CCCCN)C(=O)N[C@@H](Cc2ccc(O)cc2)C(=O)N[C@H](C(=O)N[C@@H](Cc2ccccc2)C(N)=O)C(C)C)NC(=O)[C@H](Cc2c[nH]c4ccccc24)NC(=O)[C@H](CCCCN)NC(=O)[C@H](Cc2cnc[nH]2)NC(=O)[C@H]([C@@H](C)O)NC(=O)[C@H](CCCNC(=N)N)NC(=O)[C@H](CO)NC3=O)NC(=O)[C@H](CCCCN)NC(=O)[C@H](CC(=O)O)NC(=O)[C@H](CC(N)=O)NC(=O)[C@H](CC(=O)O)NC(=O)[C@@H]2CCCN2C1=O` (H-ACLGFMRKCIPDNDKCCRPNLVCSRTHKWCKYVF-NH2; disulfide 2-17, 9-23, 16-30), the figure is < 5.30; as for `CC[C@H](C)[C@@H]1NC(=O)[C@@H]2CSSC[C@@H]3NC(=O)[C@H](C(C)C)NC(=O)[C@H](CC(C)C)NC(=O)[C@H](CC(N)=O)NC(=O)[C@@H]4CCCN4C(=O)[C@H](CCCNC(=N)N)NC(=O)[C@H](CSSC[C@H](NC(=O)[C@@H](N)CC(=O)O)C(=O)N[C@@H](CC(C)C)C(=O)N[C@@H](C)C(=O)N[C@@H](Cc4ccccc4)C(=O)N[C@@H](CCSC)C(=O)N[C@@H](CCCNC(=N)N)C(=O)N[C@@H](CCCCN)C(=O)N2)NC(=O)[C@H](CSSC[C@@H](C(=O)N[C@@H](CCCCN)C(=O)N[C@@H](Cc2ccc(O)cc2)C(=O)N[C@H](C(=O)N[C@@H](Cc2ccccc2)C(N)=O)C(C)C)NC(=O)[C@H](Cc2c[nH]c4ccccc24)NC(=O)[C@H](CCCCN)NC(=O)[C@H](Cc2cnc[nH]2)NC(=O)[C@H]([C@@H](C)O)NC(=O)[C@H](CCCNC(=N)N)NC(=O)[C@H](CO)NC3=O)NC(=O)[C@H](CCCCN)NC(=O)[C@H](CC(=O)O)NC(=O)[C@H](CC(N)=O)NC(=O)[C@H](CC(=O)O)NC(=O)[C@@H]2CCCN2C1=O` (H-DCLAFMRKCIPDNDKCCRPNLVCSRTHKWCKYVF-NH2; disulfide 2-17, 9-23, 16-30), < 5.30; as for `CC[C@H](C)[C@@H]1NC(=O)[C@@H]2CSSC[C@@H]3NC(=O)[C@H](C(C)C)NC(=O)[C@H](CC(C)C)NC(=O)[C@H](CC(N)=O)NC(=O)[C@@H]4CCCN4C(=O)[C@H](CCCNC(=N)N)NC(=O)[C@H](CSSC[C@H](NC(=O)[C@@H](N)CC(=O)O)C(=O)N[C@@H](CC(C)C)C(=O)NCC(=O)N[C@@H](C)C(=O)N[C@@H](Cc4ccccc4)C(=O)N[C@@H](CCCNC(=N)N)C(=O)N[C@@H](CCCCN)C(=O)N2)NC(=O)[C@H](CSSC[C@@H](C(=O)N[C@@H](CCCCN)C(=O)N[C@@H](Cc2ccc(O)cc2)C(=O)N[C@H](C(=O)N[C@@H](Cc2ccccc2)C(N)=O)C(C)C)NC(=O)[C@H](Cc2c[nH]c4ccccc24)NC(=O)[C@H](CCCCN)NC(=O)[C@H](Cc2cnc[nH]2)NC(=O)[C@H](CC(C)C)NC(=O)[C@H](CCCNC(=N)N)NC(=O)[C@H](CO)NC3=O)NC(=O)[C@H](CCCCN)NC(=O)[C@H](CC(=O)O)NC(=O)[C@H](CC(N)=O)NC(=O)[C@H](CC(=O)O)NC(=O)[C@@H]2CCCN2C1=O` (H-DCLGAFRKCIPDNDKCCRPNLVCSRLHKWCKYVF-NH2; disulfide 2-17, 9-23, 16-30), < 5.00.
On to `CC[C@H](C)[C@@H]1NC(=O)[C@@H]2CSSC[C@@H]3NC(=O)[C@H](C(C)C)NC(=O)[C@H](CC(C)C)NC(=O)[C@H](CC(N)=O)NC(=O)[C@@H]4CCCN4C(=O)[C@H](CCCNC(=N)N)NC(=O)[C@H](CSSC[C@H](NC(=O)[C@@H](N)CC(=O)O)C(=O)N[C@@H](CC(C)C)C(=O)NCC(=O)N[C@@H](Cc4ccccc4)C(=O)N[C@@H](CCSC)C(=O)N[C@@H](C)C(=O)N[C@@H](CCCCN)C(=O)N2)NC(=O)[C@H](CSSC[C@@H](C(=O)N[C@@H](CCCCN)C(=O)N[C@@H](Cc2ccc(O)cc2)C(=O)N[C@H](C(=O)N[C@@H](Cc2ccccc2)C(N)=O)C(C)C)NC(=O)[C@H](Cc2c[nH]c4ccccc24)NC(=O)[C@H](CCCCN)NC(=O)[C@H](Cc2cnc[nH]2)NC(=O)[C@H]([C@@H](C)O)NC(=O)[C@H](CCCNC(=N)N)NC(=O)[C@H](CO)NC3=O)NC(=O)[C@H](CCCCN)NC(=O)[C@H](CC(=O)O)NC(=O)[C@H](CC(N)=O)NC(=O)[C@H](CC(=O)O)NC(=O)[C@@H]2CCCN2C1=O` (H-DCLGFMAKCIPDNDKCCRPNLVCSRTHKWCKYVF-NH2; disulfide 2-17, 9-23, 16-30), for which the pIC50 is < 5.30.
